Results from patent US20160289728A1, “METHOD FOR DETECTING FLUORESCENCE OR ABSORBANCE, METHOD FOR SUPPRESSING BACKGROUND, METHOD FOR MEASURING ADP, METHOD FOR MEASURING ACTIVITY OF ADP-SYNTHESIZING ENZYME, AND METHOD FOR MEASURING ACTIVITY OF GLUCOSYLTRANSFERASE” (The University of Tokyo, priority 2013, published 2016).
Read-outs that look alike come from different tables or passages of the source.

Columns and labels:
[1] = molecular target: T1, CMPK1 (Homo sapiens, UniProt P30085); assay: Inhibition of CMPK1 measured by the enzymatic coupling fluorescence method; type: biochemical; details: enzymatic coupling with 20 mM N-ethylmaleimide; matched HPLC method
T1 construct: purchased Prospec pKa-002-b
T1 sequence (P30085 1-196): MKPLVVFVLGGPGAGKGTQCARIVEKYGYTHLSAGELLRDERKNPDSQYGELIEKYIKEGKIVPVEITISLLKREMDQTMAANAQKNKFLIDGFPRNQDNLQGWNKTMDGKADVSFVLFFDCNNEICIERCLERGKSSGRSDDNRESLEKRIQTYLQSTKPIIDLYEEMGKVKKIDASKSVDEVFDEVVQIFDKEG
Description: Enzyme inhibitory activities of Ap5A (P^1,P^5-Di(adenosine-5′)pentaphosphate) in which inhibitory activities of dictyostelium (Dictyostelium discoideum) on CMP kinase have been reported (J. Biol. Chem, Vol. 265, No. 11, pp. 6339-6345, 1990) on CMPK1 were measured using a method of the present invention. A 0 to 3 mM Ap5A (1 μl) (catalog number D4022 commercially available from Sigma-Aldrich) solution and 50 μM CMP (2 μl) were added to a 384-well microplate, and 200 μM ATP (2 μi), 3 μg/ml CMPK1, and 4 mM DTT were added thereto (a buffer solution composition included 100 mM Tris-HCl (pH 9), 13.5 mM MgCl2, 150 mM KCl, and 0.1% TritonX-100). The result was covered with a plate seal and incubated for 1 hour at 37° C. Then, the result was cooled at room temperature, and the mixed solution for enzymatic coupling (5 μl) containing 20 mM N-ethylmaleimide was added and incubated for 60 minutes at 25° C. in darkness. Then, fluorescence was measured using a plate reader. A group containing no Ap5A was set as a control (an inhibition rate of 0%), a group containing no CMPK1 was set as a control (an inhibition rate of 100%), and inhibition rates of Ap5A of respective concentrations on CMPK1 were calculated.

[2] = test system: enzymatic coupling reaction; assay: Influence on enzymatic coupling itself (25 μM ADP instead of CMP); type: biochemical; details: 25 μM ADP instead of 50 μM CMP
Description: In addition, the same operations were performed using 25 μM ADP instead of 50 μM CMP, and an influence of Ap5A on enzymatic coupling itself was studied. In addition, some of the reaction solution after the kinase reaction of CMPK1 was used, an amount of produced CDP was measured by the HPLC analysis method described in Example 14, and an inhibitory activity was determined by an HPLC method.

[3] = molecular target: T2, human FUT7 (Homo sapiens, UniProt Q11130); assay: Inhibition of FUT7 measured by HPLC quantification of produced GDP; type: biochemical; details: FUT7 1 μg/ml, read-out: IC50 value, inhibitory activity on FUT7
T2 sequence (Q11130 1-342): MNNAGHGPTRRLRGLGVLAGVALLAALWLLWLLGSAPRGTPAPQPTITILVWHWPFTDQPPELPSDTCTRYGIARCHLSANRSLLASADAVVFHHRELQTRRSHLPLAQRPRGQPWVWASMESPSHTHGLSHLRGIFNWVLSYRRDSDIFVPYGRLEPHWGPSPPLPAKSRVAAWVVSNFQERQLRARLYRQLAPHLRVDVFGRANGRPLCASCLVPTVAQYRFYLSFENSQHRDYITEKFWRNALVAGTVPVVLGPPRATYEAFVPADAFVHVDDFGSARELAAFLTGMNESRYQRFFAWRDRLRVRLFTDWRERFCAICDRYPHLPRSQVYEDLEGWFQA
Description: (§1) In addition, the same operations were performed using 50 μM GDP instead of 100 μM GDP-fucose, and an influence of enzymatic coupling itself on gallic acid was studied. In addition, an amount of GDP produced was quantified by HPLC analysis using some of the reaction solution after the FUT7 enzymatic reaction, and an inhibitory activity was determined by an HPLC method.
HPLC conditions were as follows: column: YMC-Triart C18 (commercially available from Ymc Corporation, particle size: 5 μm, and diameter: 4.6 mm×length: 150 mm), eluate: 50 mM KH2PO4—K2HPO4 (10:1), flow rate: 1 ml/min, and detection: UV 260 nm.

[4] = molecular target: T2, human FUT7; details: reported in Arch. Biochem. Biophys, Vol. 425, No. 1, pp. 51-57, 2004; cited from earlier work
[5] = molecular target: T2, human FUT7; assay: Inhibition of FUT7 measured by the enzymatic coupling fluorescence method of the invention; type: biochemical; details: method of the present invention, FUT7 1 μg/ml; read-out: IC50 value, inhibitory activity on FUT7
Description: 100 μM GDP-fucose (2.5 μl), 6 mg/ml fetuin, and 0 to 4 μg/ml FUT7 (2.5 μl) were added to a 384-well microplate (a buffer solution included 50 mM Tris-HCl (pH 7.5), 5 mM MgCl2, 10 mM MnCl2, and 0.1% Triton X-100), covered with a plate seal (catalog number 1-6774-01 commercially available from AS ONE corporation) and incubated for 1 hour at 37° C. After being cooled to room temperature, the mixed solution A for the first process (5 μl) was added to the result and incubated for 1 hour at 25° C. The mixed solution B for the second process (10 μl) was added to the result, and incubated for 30 minutes at 25° C. Fluorescence thereof was measured similarly to Example 1. A fluorescence value according to an enzyme concentration was confirmed.
When enzyme activities of FUT7 were measured using the method described in Example 4, an inhibitory effect of gallic acid on FUT7 was studied according to the same operations as in Example 4 except that a reaction of FUT7 (a concentration of 1 μg/ml in a transglucosylation solution) was caused in the presence of gallic acid. A group containing no gallic acid was set as a control (an inhibition rate of 0%), a group containing no FUT7 was set as a control (an inhibition rate of 100%), and inhibition rates of gallic acid of respective concentrations of FUT7 were calculated.

[6] = test system: enzymatic coupling reaction; assay: Influence on enzymatic coupling itself (50 μM GDP instead of GDP-fucose); type: biochemical; details: 50 μM GDP instead of 100 μM GDP-fucose
Description: as §1

| inhibitory activity on CMPK1 [1] | Compound | inhibition of the enzymatic coupling reaction itself [2] | IC50 [3] | IC50 [4] | IC50 [5] | inhibition of the enzymatic coupling reaction itself [6] |
| --- | --- | --- | --- | --- | --- | --- |
| inhibition of CMPK1 | Nc1ncnc2c1ncn2[C@@H]1O[C@H](COP(=O)(O)OP(=O)(O)OP(=O)(O)OP(=O)(O)OP(=O)(O)OC[C@H]2O[C@@H](n3cnc4c(N)ncnc43)[C@H](O)[C@@H]2O)[C@@H](O)[C@H]1O [Ap5A, P^1,P^5-Di(adenosine-5′)pentaphosphate] | did not inhibit the enzymatic coupling reaction itself at all |  |  |  |  |
|  | O=C(O)c1cc(O)c(O)c(O)c1 [gallic acid] |  | ~10 µM | 5.4 µM | ~10 µM | did not inhibit the enzymatic coupling reaction itself at all |
